According to patent publication US7132425B2, “5-substituted-six-membered heteroaromatic glucokinase activators” (Hoffmann-La Roche Inc., priority 2002, dated 2006):

Columns and labels:
C57BL/6J mice = experiment: Glucokinase activator in vivo screen (blood glucose after oral dosing); conditions: oral gavage 50 mg/kg after two hour fast, readings 1, 2, 4 and 6 hours post dose, p≦0.05 for two consecutive assay time points
Procedure: Glucokinase Activator in vivo Screen Protocol: C57BL/6J mice are orally dosed via gavage with Glucokinase (GK) activator at 50 mg/kg body weight following a two hour fasting period. Blood glucose determinations are made five times during the six hour post-dose study period.
Mice (n=6) are weighed and fasted for a two hour period prior to oral treatment.

| SMILES | melting point | decrease in blood glucose compared to vehicle (C57BL/6J mice) |
| --- | --- | --- |
| CN(C)c1ccc(NC(=O)[C@H](CC2CCCC2)c2ccc(S(C)(=O)=O)c(Cl)c2)nc1 [Example 14, 2(R)-(3-Chloro-4-methanesulfonyl-phenyl)-3-cyclopentyl-N-(5-dimethylamino-pyridin-2-yl)-propionamide] | 166.2 °C | statistically significant (p≦0.05) decrease in blood glucose |
| CS(=O)(=O)Nc1ccc(NC(=O)[C@H](CC2CCCC2)c2ccc(S(C)(=O)=O)c(Cl)c2)nc1 [Example 12, 2(R)-(3-Chloro-4-methanesulfonyl-phenyl)-3-cyclopentyl-N-(5-methanesulfonylamino-pyridin-2-yl)-propionamide] | 146 to 150 °C | statistically significant (p≦0.05) decrease in blood glucose |
| CS(=O)(=O)c1ccc([C@@H](CC2CCCC2)C(=O)Nc2cnc(C(CO)CO)cn2)cc1Cl [Example 40, 2(R)-(3-Chloro-4-methanesulfonyl-phenyl)-3-cyclopentyl-N-[5-(2-hydroxy-1-hydroxymethyl-ethyl)-pyrazin-2-yl]-propionamide] | 110 to 120 °C |  |
| CS(=O)(=O)c1ccc([C@@H](CC2CCCC2)C(=O)Nc2cnc(/C(N)=N\O)cn2)cc1 [Example 3, 3-Cyclopentyl-2(R)-N-[5-(N-hydroxycarbamimidoyl)-pyrazin-2-yl]-2-(4-methanesulfonyl-phenyl)-propionamide] | 223 °C (dec.) | statistically significant (p≦0.05) decrease in blood glucose |
| CN(C)S(=O)(=O)c1cnc(NC(=O)[C@H](CC2CCCC2)c2ccc(S(C)(=O)=O)c(Cl)c2)cn1 [Example 9, 2(R)-(3-Chloro-4-methanesulfonyl-phenyl)-3-cyclopentyl-N-(5-dimethylsulfamoyl-pyrazin-2-yl)-propionamide] | 100.2 °C |  |
| CS(=O)(=O)Nc1cnc(NC(=O)[C@H](CC2CCCC2)c2ccc(S(C)(=O)=O)c(Cl)c2)cn1 [Example 13, 2(R)-(3-Chloro-4-methanesulfonyl-phenyl)-3-cyclopentyl-N-(5-methanesulfonylamino-pyrazin-2-yl)-propionamide] | 108 to 110 °C |  |
| CSCc1cnc(NC(=O)[C@H](CC2CCCC2)c2ccc(S(C)(=O)=O)c(Cl)c2)cn1 [Example 36, 2(R)-(3-Chloro-4-methanesulfonyl-phenyl)-3-cyclopentyl-N-(5-methylsulfanylmethyl-pyrazin-2-yl)-propionamide] | 75 to 76.7 °C |  |
| CN(C)Cc1cnc(NC(=O)[C@H](CC2CCCC2)c2ccc(S(C)(=O)=O)c(Cl)c2)cn1 [Example 32, 2(R)-(3-Chloro-4-methanesulfonyl-phenyl)-3-cyclopentyl-N-(5-dimethylaminomethyl-pyrazin-2-yl)-propionamide] | 88 to 91.5 °C |  |
| C[S+]([O-])Cc1cnc(NC(=O)[C@H](CC2CCCC2)c2ccc(S(C)(=O)=O)c(Cl)c2)cn1 (stereo partly drawn) [Example 38, 2(R)-(3-Chloro-4-methanesulfonyl-phenyl)-3-cyclopentyl-N-(5-methanesulfinylmethyl-pyrazin-2-yl)-propionamide] | 102 to 106 °C |  |
| CS(=O)(=O)c1ccc([C@@H](CC2CCCC2)C(=O)Nc2cnc(SCCO)cn2)cc1Cl [Example 6, 2(R)-(3-Chloro-4-methanesulfonyl-phenyl)-3-cyclopentyl-N-[5-(2-hydroxy-ethylsulfanyl)-pyrazin-2-yl]-propionamide] | 78 to 81 °C | statistically significant (p≦0.05) decrease in blood glucose |
| CSCc1cnc(NC(=O)C(CC2CCCC2)c2ccc(S(C)(=O)=O)c(Cl)c2)cn1 (stereo not drawn) [Example 30, 2-(3-Chloro-4-methanesulfonyl-phenyl)-3-cyclopentyl-N-(5-methylsulfanylmethyl-pyrazin-2-yl)-propionamide] | 70 to 75 °C |  |
| CS(=O)(=O)c1ccc([C@@H](CC2CCCC2)C(=O)Nc2cnc(C[C@@H](O)CO)cn2)cc1Cl [Example 82, 2(R)-(3-chloro-4-methanesulfonyl-phenyl)-3-cyclopentyl-N-[5-(2(R),3-dihydroxy-propyl)-pyrazin-2-yl]-propionamide] | 64 to 69 °C |  |
| C/C(=N/O)c1cnc(NC(=O)[C@H](CC2CCCC2)c2ccc(S(C)(=O)=O)cc2)cn1 [Example 34, 3-Cyclopentyl-N-[5-(1-hydroxyimino-ethyl)-pyrazin-2-yl]-2(R)-(4-methanesulfonyl-phenyl)-propionamide] | 118.8 to 122.4 °C | statistically significant (p≦0.05) decrease in blood glucose |
| CS(=O)(=O)c1ccc(C(CC2CCCC2)C(=O)Nc2cnc(/C(C#N)=N\O)cn2)cc1Cl (stereo not drawn) [Example 37, 2-(3-Chloro-4-methanesulfonyl-phenyl)-N-[5-(cyano-hydroxyimino-methyl)-pyrazin-2-yl]-3-cyclopentyl-propionamide] | 130 to 133 °C |  |
| CS(=O)(=O)c1ccc([C@@H](CC2CCCC2)C(=O)Nc2cnc(C[C@H](O)CO)cn2)cc1Cl [Example 81, 2(R)-(3-Chloro-4-methanesulfonyl-phenyl)-3-cyclopentyl-N-[5-(2(S),3-dihydroxy-propyl)-pyrazin-2-yl]-propionamide] | 61 to 65 °C |  |

The next lines start with results.

| melting point | SMILES | decrease in blood glucose compared to vehicle (C57BL/6J mice) |
| --- | --- | --- |
| 117 to 121 °C | CS(=O)(=O)c1ccc([C@@H](CC2CCCC2)C(=O)Nc2cnc(/C(N)=N\O)cn2)cc1Cl [Example 1, 2(R)-(3-Chloro-4-methanesulfonyl-phenyl)-3-cyclopentyl-N-[5-(N-hydroxycarbamimidoyl)-pyrazin-2-yl]-propionamide] | statistically significant (p≦0.05) decrease in blood glucose |
| 93.3 to 97.7 °C | CN(C)c1cnc(NC(=O)[C@H](CC2CCCC2)c2ccc(S(C)(=O)=O)c(Cl)c2)cn1 [Example 15, 2(R)-(3-Chloro-4-methylsulfonyl-phenyl)-3-cyclopentyl-N-(5-dimethylamino-pyrazin-2-yl)-propionamide] | statistically significant (p≦0.05) decrease in blood glucose |
| 134 to 139 °C | CS(=O)(=O)c1ccc([C@@H](CC2CCCC2)C(=O)Nc2cnc(C(=O)NO)cn2)cc1Cl [Example 29, 5-[2(R)-(3-Chloro-4-methanesulfonyl-phenyl)-3-cyclopentyl-propionylamino]-pyrazine-2-carboxylic acid hydroxyamide] | statistically significant (p≦0.05) decrease in blood glucose |
| 101 to 105 °C | Cc1noc(-c2cnc(NC(=O)[C@H](CC3CCCC3)c3ccc(S(C)(=O)=O)c(Cl)c3)cn2)n1 [Example 35, 2(R)-(3-Chloro-4-methanesulfonyl-phenyl)-3-cyclopentyl-N-[5-(3-methyl-[1,2,4]oxadiazol-5-yl)-pyrazin-2-yl]-propionamide] |  |
| 77 to 80 °C | CC(=O)c1cnc(NC(=O)[C@H](CC2CCCC2)c2ccc(S(C)(=O)=O)c(Cl)c2)cn1 [Example 39, N-(5-Acetyl-pyrazin-2-yl)-2(R)-(3-chloro-4-methanesulfonyl-phenyl)-3-cyclopentyl-propionamide] |  |
| 262 to 264 °C | CS(=O)(=O)c1ccc([C@@H](CC2CCCC2)C(=O)Nc2cnc(-c3noc(N)n3)cn2)cc1Cl [Example 17, N-[5-(5-Amino-[1,2,4]oxadiazol-3-yl)-pyrazin-2-yl]-2(R)-(3-chloro-4-methanesulfonyl-phenyl)-3-cyclopentyl-propionamide] | statistically significant (p≦0.05) decrease in blood glucose |
| 97 to 101 °C | CS(=O)(=O)c1ccc([C@@H](CC2CCCC2)C(=O)Nc2cnc(-c3ccoc3)cn2)cc1Cl [Example 78, 2(R)-(3-Chloro-4-methanesulfonyl-phenyl)-3-cyclopentyl-N-(5-furan-3-yl-pyrazin-2-yl)-propionamide] | statistically significant (p≦0.05) decrease in blood glucose |
| 96 to 102 °C | CS(=O)(=O)c1ccc([C@@H](CC2CCCC2)C(=O)Nc2cnc(-c3ccsc3)cn2)cc1Cl [Example 77, 2(R)-(3-Chloro-4-methanesulfonyl-phenyl)-3-cyclopentyl-N-(5-thiophen-3-yl-pyrazin-2-yl)-propionamide] |  |
| 88 to 95 °C | C[S+]([O-])c1cnc(NC(=O)[C@H](CC2CCCC2)c2ccc(S(C)(=O)=O)c(Cl)c2)cn1 (stereo partly drawn) [Example 7, 2(R)-(3-Chloro-4-methanesulfonyl-phenyl)-3-cyclopentyl-N-(5-methanesulfinyl-pyrazin-2-yl)-propionamide] | statistically significant (p≦0.05) decrease in blood glucose |
| 97 to 99 °C | CS(=O)(=O)c1ccc([C@@H](CC2CCCC2)C(=O)Nc2cnc(-c3cccs3)cn2)cc1Cl [Example 76, 2(R)-(3-Chloro-4-methanesulfonyl-phenyl)-3-cyclopentyl-N-(5-thiophen-2-yl-pyrazin-2-yl)-propionamide] | statistically significant (p≦0.05) decrease in blood glucose |
| 101 to 107 °C | CS(=O)(=O)c1ccc([C@@H](CC2CCCC2)C(=O)Nc2cnc(-c3ccc(C#N)s3)cn2)cc1Cl [Example 79, 2(R)-(3-Chloro-4-methanesulfonyl-phenyl)-N-[5-(5-cyano-thiophen-2-yl)-pyrazin-2-yl]-3-cyclopentyl-propionamide] |  |
| 101.9 to 104.8 °C | Cc1nc(-c2cnc(NC(=O)C(CC3CCCC3)c3ccc(S(C)(=O)=O)c(Cl)c3)cn2)no1 (stereo not drawn) [Example 33, 2-(3-Chloro-4-methanesulfonyl-phenyl)-3-cyclopentyl-N-[5-(5-methyl-[1,2,4]oxadiazyl-3-yl)-pyrazin-2-yl]-propionamide] |  |
